Read-outs that look alike come from different tables or passages of the source.
Columns and labels:
[1] = Metabolite identification in rat blood, urine and feces (UHPLC-MS/MS); format: in vivo, Sprague-Dawley rats; set-up: key: B, U and F represent blood, urine and feces samples, respectively; B, U and F represent blood, urine and feces samples, respectively; B, U and F represent blood, urine and feces samples, respectively; conditions: rats dosed orally with 20 mg/kg liposomes-encapsulated tHGA, samples over 24 h
Experimental: Groups 4 to 6 were used for single-dose drug metabolism study. Each rat was kept in individual metabolic cages. Urine and faeces were collected from each rat in the tHGA-treated group 4 and control group 5 at four different times over a period of 24 h. The samples were stored at −80 °C until further analysis. For the determination of plasma metabolites, blood was sampled from each rat in the control group 6, according to the same procedure as in the pharmacokinetic study. Blood samples collected from the tHGA-treated group 2 in the pharmacokinetics study were also used for the metabolism study.
For the drug metabolism study, for each rat, plasma samples collected over a period of 24 h were combined and tHGA was similarly extracted from the samples. For the urine samples, for each rat, samples collected over the 24 h period were combined and centrifuged for 15 min at 14,000 rpm. The supernatant was then vacuum-evaporated at 40 °C to a volume of 5 mL, after which, 30 mL methanol was added, the mixture sonicated for 25 min, followed by centrifuging at 10,000 rpm for 15 min. The supernatant was again vacuum-concentrated at 40 °C, to a volume of 5 mL, filtered through 0.45 μm membrane filter into an LC-MS vial and then injected (10 µL) to UHPLC-MS/MS system for spectral acquisition.
[…] collected over 24 h was homogenized with distilled water in the ratio of 1 g to 3 mL and sonicated for 10 min. From this mixture, 3 mL was taken and mixed with 9 mL methanol. After that, the mixture was sonicated for 30 min and then centrifuged at 14,000 rpm for 15 min. The supernatant was taken to dryness using a rotary evaporator at 40 °C. The residue was then reconstituted in 1 mL ACN (80%), filtered through 0.45 μm membrane filter, and injected to the UHPLC-MS/MS system for acquisition of spectra.
For the identification of tHGA and its metabolites simultaneously, MS detection was operated under a heated electrospray ion source (H-ESI II) using positive/negative switching ionization mode to maximize metabolite coverage in every injection. The H-ESI parameters were optimized as follows: spray voltage (+) and (−) 4.2 and 3.5 kV respectively, capillary temperature 320 °C, S-lens RF level 55, sheath gas flow rate 45, auxiliary gas 10 and sweep gas 2 (manufacturer’s units). Nitrogen was used for the source, Orbitrap bath gas, and the higher energy collision dissociation (HCD) cell collision. The full-scan MS data were recorded across the mass range of 50–1500 m/z. The resolution was 70,000 (FWHM) at m/z 200, with automatic gain control (AGC) target of 1 × 10^6 ions and an auto maximum ion injection time (IT).
All MS data acquired using the Q Exactive MS were controlled by Xcalibur 4.0 software (Thermo Fisher Scientific). The MS data from plasma-, urine-, and feces-treated, as well as the control samples were analyzed using Compound Discoverer software 2.1 (Thermo Fisher Scientific) for the identification of tHGA metabolites. The software extracted information about metabolite m/z values depending on a list of expected metabolites. As no standards or literature information were available to confirm tHGA metabolites structure, tentative elucidation of the metabolites was performed according to Schymanski classification. A list of putative metabolites with the probable metabolism pathway was created for peaks based on MS, MS/MS fragmentation and the isotopic pattern of tHGA. The matching percentage between measured and theoretical MS/MS spectra was determined depending on the existence/absence of theoretical fragments in the MS/MS spectra generated experimentally. In addition, the site of metabolism was determined based on the tHGA structure with the help of a web server site for metabolism predictor [27, 28].

[2] = Short- and long-term stability of tHGA in rat plasma QC samples; format: in vitro ADME; conditions: for Stability RE (%) Short-Term (4 °C): processed rat plasma sample, autosampler 4 °C, 24 h; for Stability RE (%) Short-Term (4 °C) / Stability RE (%) Long-Term (−80 °C): n = 6; for Stability RE (%) Long-Term (−80 °C): rat plasma, 1 month
Experimental: Short- and long-term stability studies of tHGA in plasma was assessed using six replicates at two concentration levels, LQC and HQC. The QC samples were analyzed against the standard curve which was freshly prepared. The short-term stability was evaluated by analyzing the processed QC samples kept in the autosampler (4 °C) for 24 h. For long-term stability, tHGA plasma samples in low and high concentrations were stored at −80 °C for 1 month.

[3] = Single-dose pharmacokinetic study of free and liposome-encapsulated tHGA in rats (plasma, LC-HRMS); format: in vivo, Sprague-Dawley rats; conditions: for Fr (relative oral bioavailability): PO 20 mg/kg relative to IP 20 mg/kg tHGA-loaded liposomes, rats
Experimental: Thirty healthy male Sprague-Dawley (S.D.) rats, weighing between 180 and 225 g on the day of dosing, were kept in polypropylene cage base with stainless steel wire top clips for three days before the experiment. The living environment of the animals was controlled as follows: 12/12-h dark/light cycle, temperature maintained between 22 to 25 °C, daily feeding with commercial pellet food, and tap water. Rats were fasted 12 h before dosing and labeled with a designated number at the base of their tails. The rats were then randomly divided into six groups as follows: • Group 1 (n = 6) were dosed orally with 20 mg/kg of free tHGA. • Group 2 (n = 6) were dosed orally with 20 mg/kg of liposomes-encapsulated tHGA. • Group 3 (n = 6) were dosed intraperitoneally with 20 mg/kg of liposomes-encapsulated tHGA • Group 4 (n = 4) were dosed orally with 20 mg/kg of liposomes-encapsulated tHGA. • Group 5 (n = 4, control) were dosed orally with blank liposomes formulation (for urine and feces collection). • Group 6 (n = 4, control) were dosed orally with blank liposomes formulation (for blood collection).
Groups 1 to 3 were used for the single-dose pharmacokinetic study. An aliquot of 200 µL of blood was drawn from each rat via the tail vein into polypropylene tubes containing a disodium K2EDTA solution (10%) as an anticoagulant at the pre-specified time points; at 0.25, 0.5, 1.5, 2, 4, 8 and 24 h for groups 1 and 2 after PO dose, and at 0.08, 0.5, 1.5, 2, 4, 8 and 24 h for group 3 after IP dose. Blood samples were centrifuged at 14,000 rpm at 20 °C for 10 min to separate the plasma which was then stored under −80 °C until further analysis. Animals were allowed to feed two hours after the first sample time point.
For the pharmacokinetic study, the same procedure used in the preparation of the standard solutions was used to extract tHGA from plasma samples.
LC-MS analysis was performed using a Thermo Scientific™ Q Exactive™ Focus Hybrid Quadrupole-Orbitrap™ Mass Spectrometer (Thermo Fisher Scientific, Bremen, Germany) attached to a Thermo Scientific Dionex Ultimate 3000 Series RS pump coupled with a Thermo Scientific Dionex Ultimate 3000 Series TCC-3000RS column compartments and a Thermo Fisher Scientific Ultimate 3000 Series WPS-3000RS autosampler (Thermo Fisher Scientific, Sunnyvale, CA, USA) controlled by Xcalibur Software 4.0 (Thermo Fisher Scientific, Waltham, MA, USA). The chromatographic separation was carried out using a Hypersil GOLD C18 column (100 × 2.1 mm, 1.9 μm) (Thermo Fisher Scientific, Waltham, MA, USA) and the mobile phase consisted of water with 0.1% formic acid (solvent A) and acetonitrile with 0.1% formic acid (solvent B). Gradient elution was run at 0.3 mL/min, with 10% solvent B at the start (t = 0 min), increasing to 70% solvent B at t = 5 min. The gradient was then maintained for 3 min at 70% solvent B until t = 8 min before again increasing solvent B to 100% until the end of the run at t = 9.5 min. The temperature of the autosampler was set to 4 °C. For the metabolism study, the same chromatographic conditions were used with a different elution system. A linear gradient elution from 0% to 100% of solvent B for 45 min was used.
Mass spectrometric detection was operated under a heated electrospray ion source (H-ESI II) in negative ionization mode. The H-ESI parameters were optimized as follows: spray voltage 3.5 kV, capillary temperature 320 °C, S-lens RF level 55, sheath gas flow rate 45, auxiliary gas 10 and sweep gas 2 (manufacturer’s units). Nitrogen was used for the source, Orbitrap bath gas, and the higher energy collision dissociation (HCD) cell collision. A targeted SIM data-dependent MS/MS (tSIM/ddMS2) acquisition was used with an inclusion mass list containing m/z and retention time of tHGA. The resolution was 35,000 (FWHM) at m/z 200, with automatic gain control (AGC) target of 5 × 10^4 ions and an auto maximum ion injection time (IT). […]

[4] = PO, 20 mg/kg, male S.D rats, plasma, mean n = 6, listed as Free tHGA

CC(=O)c1c(O)cc(O)c(C(O)/C=C(\C)CCC=C(C)C)c1O (stereo not drawn) [M3]
Source (sample in which the metabolite was detected) [1]: F, U

CC(=O)c1c(O)cc(O)c(C/C=C(C)/C=C/C=C(C)C)c1O [M7]
Source (sample in which the metabolite was detected) [1]: F

CC(=O)c1c(O)cc(O)c(C(O)/C=C(\C)CCC(O)=C(C)C)c1O (stereo not drawn) [M4]
Source (sample in which the metabolite was detected) [1]: F

CC(=O)c1c(O)cc(O)c(C/C=C(\C)CCC=C(C)C)c1O [tHGA, 2,4,6-trihydroxy-3-geranylacetophenone]
Stability RE (%) Short-Term (4 °C) ([2]; 1.5 ng/mL tHGA (LQC)): −4.66 ± 11.9%
Stability RE (%) Long-Term (−80 °C) ([2]; 1.5 ng/mL tHGA (LQC)): 5.93 ± 2.8%
Stability RE (%) Short-Term (4 °C) ([2]; 70 ng/mL tHGA (HQC)): 5.34 ± 6.9%
Stability RE (%) Long-Term (−80 °C) ([2]; 70 ng/mL tHGA (HQC)): 5.34 ± 5.1%
long-term stability, accuracy ([2]; LQC and HQC plasma samples, 1 month at −80 °C): 5.3–5.9%
Fr (relative oral bioavailability) ([3]; listed as Free tHGA): 9.07%
Fr (relative oral bioavailability) ([3]; listed as unformulated tHGA): 9.1%
Cmax [3, 4]: 5.35 ng/mL
t1/2 (elimination half-life) [3, 4]: 6.95 h
Tmax ([3]; Sprague-Dawley, rat, PO, 20 mg/kg, male S.D rats, plasma, mean n = 6): 0.25 h
AUC(0-t) ([3]; male, Sprague-Dawley, rat, plasma, 20 mg/kg, oral administration, rats (unit as printed in abstract), read-out: AUC0–24): 17.6 ng·h/mL
Cmax ([3]; male, Sprague-Dawley, rat, plasma, po, 20 mg/kg, PO, male S.D rats, plasma, mean n = 6, read-out: Cmax): 5.4 ng/mL
half-life ([3]; male, Sprague-Dawley, rat, plasma, po, 20 mg/kg, PO, male S.D rats, plasma, mean n = 6, read-out: t1/2 (elimination half-life) (converted)): 6.9 h

CC(=O)c1c(O)cc(O)c(C(O)/C=C(C)/C=C/C(O)=C(C)C)c1O (stereo not drawn) [M6]
Source (sample in which the metabolite was detected) [1]: F, B

CC(=O)c1c(O)cc(O)c(C/C=C(\C)CCCC(C)(C)O)c1O [M5]
Source (sample in which the metabolite was detected) [1]: F

CC(=O)c1c(O)cc(O)c(C/C=C(\C)CCC(O)C(C)(C)O)c1O (stereo not drawn) [M10]
Source (sample in which the metabolite was detected) [1]: F

CC(=O)c1c(O)cc(O)c(C/C=C(\C)CCC(O)=C(C)C)c1O [M2]
Source (sample in which the metabolite was detected) [1]: F, U

CC(=O)c1c(O)cc(OS(=O)(=O)O)c(C(O)/C=C(\C)CCC(O)=C(C)C)c1O (stereo not drawn) [M9]
Source (sample in which the metabolite was detected) [1]: B

Source: PMC7412073, “Pharmacokinetics and Metabolism of Liposome-Encapsulated 2,4,6-Trihydroxygeranylacetophenone in Rats Using High-Resolution Orbitrap Liquid Chromatography Mass Spectrometry” (Molecules, 2020)
